The results in this text go back to patent US8859581B2, “Azaheterocyclic compounds as kinase inhibitors” (Merck Patent GmbH, priority 2005, dated 2014).

Counter-ions that a name gives are not always drawn.

One may read the melting point as the temperature, or range, at which the solid turns liquid.

In one series the target is T1, IGF1R (Homo sapiens, UniProt P08069).
T1 construct: endogenous in cells
T1 sequence (P08069 31-1367): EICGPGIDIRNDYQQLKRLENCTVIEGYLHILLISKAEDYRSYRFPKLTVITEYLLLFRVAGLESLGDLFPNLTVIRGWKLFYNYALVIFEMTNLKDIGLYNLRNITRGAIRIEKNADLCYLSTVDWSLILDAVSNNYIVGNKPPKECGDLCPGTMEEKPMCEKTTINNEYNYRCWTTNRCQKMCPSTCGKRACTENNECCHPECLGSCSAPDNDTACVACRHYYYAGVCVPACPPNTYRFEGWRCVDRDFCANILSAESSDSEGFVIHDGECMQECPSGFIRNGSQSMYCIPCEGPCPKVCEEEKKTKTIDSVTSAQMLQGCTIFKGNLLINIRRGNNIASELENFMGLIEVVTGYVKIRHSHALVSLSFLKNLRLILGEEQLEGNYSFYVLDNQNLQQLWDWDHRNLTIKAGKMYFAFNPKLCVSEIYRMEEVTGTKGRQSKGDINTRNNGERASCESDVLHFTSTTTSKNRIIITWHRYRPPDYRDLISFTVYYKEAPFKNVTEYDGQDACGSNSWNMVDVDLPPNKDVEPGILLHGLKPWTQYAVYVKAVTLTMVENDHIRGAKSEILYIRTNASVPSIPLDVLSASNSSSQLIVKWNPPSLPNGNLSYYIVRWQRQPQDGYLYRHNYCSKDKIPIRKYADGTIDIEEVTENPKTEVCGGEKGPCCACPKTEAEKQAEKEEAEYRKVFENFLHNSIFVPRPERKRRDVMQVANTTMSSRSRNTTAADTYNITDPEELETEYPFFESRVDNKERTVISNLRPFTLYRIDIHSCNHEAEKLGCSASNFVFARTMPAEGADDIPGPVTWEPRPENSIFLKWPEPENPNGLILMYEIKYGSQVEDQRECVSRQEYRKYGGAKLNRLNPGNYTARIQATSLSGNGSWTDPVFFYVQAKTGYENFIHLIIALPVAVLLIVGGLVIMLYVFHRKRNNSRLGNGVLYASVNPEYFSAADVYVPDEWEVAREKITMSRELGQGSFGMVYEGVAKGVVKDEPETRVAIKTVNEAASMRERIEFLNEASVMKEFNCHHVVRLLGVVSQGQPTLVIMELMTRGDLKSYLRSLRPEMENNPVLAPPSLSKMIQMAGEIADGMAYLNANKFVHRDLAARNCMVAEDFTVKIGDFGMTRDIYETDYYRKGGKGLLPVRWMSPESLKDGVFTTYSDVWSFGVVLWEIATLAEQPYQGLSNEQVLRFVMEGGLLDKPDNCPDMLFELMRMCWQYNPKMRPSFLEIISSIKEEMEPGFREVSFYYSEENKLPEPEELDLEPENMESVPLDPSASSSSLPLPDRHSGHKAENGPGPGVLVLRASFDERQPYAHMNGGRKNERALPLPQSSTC
Kind of series: Inhibition of IGF-1R (IC50): IGF1-stimulated IGF1R autophosphorylation in human tumour cells, Capture-ELISA or LUMINEX. As to conditions: human tumour cells expressing IGF1R (for example MCF-7 or Calu-6); 45 min pre-treatment, IGF1 stimulation 5 min; read-out: IC50 (μM), IGF1R. Format: cell-based. The procedure: Cultivated human tumour cells which express the IGF1 receptor (IGF1R) (for example MCF-7 or Calu-6) are stimulated using human IGF1, the natural ligand of IGF1R. The stimulation induces autophosphorylation of tyrosine residues in the cytoplasmatic IGF1R domain, which triggers signal transduction cascades, which result in apoptosis inhibition and cell proliferation.
The amount of phosphorylated IGF1R is determined by a receptor-specific Capture-ELISA or an analogous LUMINEX assay. The IGF1R from cell lysates is bound to a 96-well ELISA plate or LUMINEX beads (“capturing”) by means of a specific antibody, and the tyrosine phosphorylation is detected using a biotin-labelled anti-phosphotyrosine antibody and a streptavidin peroxidase conjugate by a chemoluminescence method or by means of a fluorescence-labelled anti-phosphotyrosine antibody, In order to determine the activity of kinase inhibitors, cells are pre-treated with increasing concentrations of these compounds for 45 min and subsequently stimulated using IGF1 for 5 min. As internal control, the biological activity of the ligand IGF1 is checked and a concentration series of an IGF1R reference inhibitor measured.
In general terms: ELISA stands for enzyme-linked immunosorbent assay.
With `COc1cc(-c2cc3c(Nc4cnccn4)ccnc3[nH]2)cc(OC)c1OC` [Compound 7], the IC50 came to 0.76 µM.

Take `COc1cc(-c2cc3c(NCCc4ccccn4)ccnc3[nH]2)cc(OC)c1OC` [Compound 10]: the IC50 turned out to be 1.4 µM.

Consider `COc1cc(-c2cc3c(Nc4cccnc4)ccnc3[nH]2)cc(OC)c1OC` [Compound 2], for which the IC50 is 0.76 µM.

Still in this series, the particulars now being: human tumour cells expressing IGF1R (for example MCF-7 or Calu-6); 45 min pre-treatment, IGF1 stimulation 5 min; read-out: concentration at which the substance inhibits the kinase IGF-1R to the extent of 50%.
In the case of `COc1cc(-c2cc3c(Nc4cnc5ccccc5c4)ccnc3[nH]2)cc(OC)c1OC` [Compound 1, quinolin-3-yl-[2-(3,4,5-trimethoxyphenyl)-1H-pyrrolo[2,3b]pyridin-4-yl]amine], the IC50 turned out to be 14 µM.

Tested on in a further series: not given
Test: not given
Details: not given
Molecule `COc1cccc(-c2c[nH]c3cc(Cl)ncc23)c1` [Compound 77] registered a melting point of 211 to 212 °C.

Regarding `COc1ccc(CNc2ccn(CCCCN)c3nc(-c4ccc(OC)cc4)cc2-3)cc1` (as salt: TFA) [Compound 36], the melting point was in the range of 127 to 127.5 °C.

Molecule `COc1cccc(-c2c[nH]c3ccnc(Cl)c23)c1` [Compound 46] came in with a melting point of 159.5 to 160 °C. On the same count and under the same terms, the figure for `COc1cccc(-c2cn(CCCCN)c3ccnc(N)c23)c1` (as salt: TFA) [Compound 47] is 50 °C. `Clc1cc2[nH]cc(-c3cccc(OCc4ccccc4)c3)c2cn1` [Compound 83] came in with a melting point of 225 to 228.5 °C. Molecule `COc1cccc(-c2cn(CCCN3C(=O)c4ccccc4C3=O)c3ccnc(Cl)c23)c1` (as salt: TFA) [Compound 49] had a melting point of 129 to 130 °C.

Consider `COc1cccc(-c2cn(CCN3C(=O)c4ccccc4C3=O)c3ccnc(Cl)c23)c1` (as salt: TFA) [Compound 51], for which the melting point is 130 °C (dec.). Take `COc1cccc(-c2c[nH]c3ccnc(NCc4cccnc4)c23)c1` [Compound 62]: the melting point is 80 °C (dec.). As for `COc1ccc(CNc2nccc3[nH]c(-c4cccc(OCc5ccccc5)c4)cc23)cc1` (as salt: TFA) [Compound 48], the melting point fell in the range of 130 to 131 °C.

The molecule `COc1cc(-c2cc3c(NCc4cccnc4)ccnc3[nH]2)cc(OC)c1OC` (as salt: hydrochloride) (hydrate or solvate) [Compound 8] registered a melting point of 181.5 to 183 °C. Turning to `COc1cccc(-c2cc3c(NCc4ccccc4)ccnc3[nH]2)c1` (as salt: hydrochloride) [Compound 14], the melting point fell in the range of 117 to 119 °C.

`COc1ccc(CNc2ccnc3[nH]c(-c4cccc(OCc5ccccc5)c4)cc23)cc1` [Compound 32] registered a melting point of 218 to 219 °C.

Consider `COc1cccc(-c2cc3c(NCCCn4ccnc4)ccnc3[nH]2)c1` (as salt: hydrochloride) [Compound 12], for which the melting point was 161 to 162 °C. `COc1cccc(-c2cn(C3CC(CNC(=O)c4ccccc4C(=O)O)C3)c3cc(Cl)ncc23)c1` (stereo not drawn) [Compound 80] showed a melting point of 177 to 180 °C. The molecule `c1ccc(CCCOc2cccc(-c3cc4c(Nc5cccnc5)ccnc4[nH]3)c2)cc1` (as salt: HCl) [Compound 22] had a melting point of 166 to 167.5 °C. For the molecule `COc1cccc(-c2cn(CCCCCNC(=O)c3ccccc3C(=O)O)c3cc(Cl)ncc23)c1` [Compound 82], the melting point was 97 to 99 °C. As for `Fc1ccccc1Nc1ccnc2[nH]c(-c3cccc(OCCCc4ccccc4)c3)cc12` (as salt: HCl) [Compound 26], the melting point fell in the range of 155 to 156 °C. Molecule `Fc1cccc(Nc2ccnc3[nH]c(-c4cccc(OCCCc5ccccc5)c4)cc23)c1` (as salt: HCl) [Compound 24] gave a melting point of 210 to 211.5 °C. On to `COc1ccc(CNc2nccc3[nH]cc(-c4cccc(OC)c4)c23)cc1` (as salt: HCl) [Compound 42], for which the melting point was 226 to 227 °C.

For `COc1ccc(-c2cc3c(N(C(=O)c4ccc(F)c(Cl)c4)C(=O)c4ccc(F)c(Cl)c4)ccnc3[nH]2)cc1` (as salt: TFA) [Compound 33], the melting point lay in the range of 142 to 144 °C. `COc1ccc(Nc2ccnc3[nH]c(-c4cc(OC)c(OC)c(OC)c4)cc23)cc1N1CCN(C)CC1` (as salt: hydrochloride) (hydrate or solvate) [Compound 3]: the melting point was in the range of 78 to 80 °C. On to `COc1ccc(CNc2ccnc3[nH]c(-c4ccc(OC)cc4)cc23)cc1` (as salt: hydrochloride) [Compound 16], for which the melting point lay within 196 to 197 °C. Same read-out and setting: the figure for `c1ccc(COc2cccc(-c3cc4cnccc4[nH]3)c2)cc1` [Compound 70] is 168 to 170 °C.

In turn, `COc1cccc(-c2c([Si](C)(C)C)[nH]c3ccnc(Cl)c23)c1` returned a melting point of 137 °C. In turn, `COc1cc(-c2cc3c(Nc4cccnc4)ccnc3[nH]2)cc(OC)c1OC` (as salt: hydrochloride) (hydrate or solvate) [Compound 2] showed a melting point of 202 to 203 °C. Take `COc1cccc(-c2cn(CCNC(=O)c3ccccc3C(=O)O)c3cc(Cl)ncc23)c1` [Compound 78]: the melting point was 160 °C (dec.).

Molecule `COc1cc(-c2cc3c(NCCc4cccnc4)ccnc3[nH]2)cc(OC)c1OC` (as salt: hydrochloride) (hydrate or solvate) [Compound 9] yielded a melting point of 105.5 to 106.5 °C.

As for `COc1cccc(-c2cn(CCCCN3C(=O)c4ccccc4C3=O)c3ccnc(N)c23)c1` (as salt: TFA) [Compound 55], the melting point was 188 to 189 °C. For `Clc1nccc2[nH]cc(-c3cccc(OCc4ccccc4)c3)c12` [Compound 56], the melting point is 156 to 158 °C. The molecule `C=CCNc1ccnc2[nH]c(-c3ccc(OC)cc3)cc12` (as salt: TFA) [Compound 35] displayed a melting point of 189.5 to 190 °C.

In the case of `COc1cc(-c2cc3c(Nc4cnccn4)ccnc3[nH]2)cc(OC)c1OC` (as salt: hydrochloride) (hydrate or solvate) [Compound 7], the melting point fell in the range of 292 to 294 °C. Molecule `COc1cccc(-c2c([Si](C)(C)C)n(CCCCN3C(=O)c4ccccc4C3=O)c3ccnc(Cl)c23)c1` (as salt: TFA) came in with a melting point of 183 to 184 °C. The molecule `COc1ccc(-c2cc3cnccc3[nH]2)cc1` [Compound 75] returned a melting point of 205 to 207 °C. For `COc1cccc(-c2cc3c(NCCCN(C)C)ccnc3[nH]2)c1` (as salt: hydrochloride) (hydrate or solvate) [Compound 15], the melting point lay within 257 to 258 °C. On to `COc1cc(-c2cc3c(NCCc4ccccn4)ccnc3[nH]2)cc(OC)c1OC` (as salt: hydrochloride) (hydrate or solvate) [Compound 10], for which the melting point lay in the range of 153 to 154 °C.

In the case of `COc1cccc(-c2cc3c(Nc4ccc(F)c(Cl)c4)ccnc3[nH]2)c1` (as salt: hydrochloride) [Compound 6], the melting point lay within 164 to 165 °C. On to `COc1ccc(-c2cc3c(NC(=O)Nc4ccc(Cl)c(C(F)(F)F)c4)ccnc3[nH]2)cc1` (as salt: TFA) [Compound 34], for which the melting point is 141 to 142 °C. `c1ccc(CCCOc2cccc(-c3cc4cccnc4[nH]3)c2)cc1` [Compound 30] registered a melting point of 128 to 129 °C. The molecule `COc1cc(-c2cc3c(Nc4cnc5ccccc5c4)ccnc3[nH]2)cc(OC)c1OC` (as salt: hydrochloride) [Compound 1, quinolin-3-yl-[2-(3,4,5-trimethoxyphenyl)-1H-pyrrolo[2,3b]pyridin-4-yl]amine] yielded a melting point of 227 to 228.5 °C. As to `COc1cccc(-c2cn(CCCNC(=O)c3ccccc3C(=O)O)c3ccnc(Cl)c23)c1` [Compound 50], the melting point was 122 to 124 °C. In the case of `COc1cccc(-c2cc3c(NCCn4cccc4)ccnc3[nH]2)c1` (as salt: hydrochloride) [Compound 17], the melting point is 218 to 219 °C. Still for that read-out and setting: with `COc1cc(-c2cc3c(Nc4cccc(C#N)c4)ccnc3[nH]2)cc(OC)c1OC` (as salt: hydrochloride) (hydrate or solvate) [Compound 11] the figure was 291 to 292.5 °C. As to `COc1ccc(CNc2ccnc3[nH]c(-c4cccc(OCCCc5ccccc5)c4)cc23)cc1` [Compound 23], the melting point lay within 164 to 165 °C. For the molecule `COc1cccc(-c2cn(CCCNC(=O)c3ccccc3C(=O)O)c3cc(Cl)ncc23)c1` [Compound 79], the melting point lay in the range of 100 to 101 °C.

Turning to `COc1cccc(-c2c[nH]c3ccnc(Nc4ccccn4)c23)c1` [Compound 53], the melting point was above 299 °C. In turn, `c1ccc(CCCOc2cccc(-c3cc4c(Nc5ccccn5)ccnc4[nH]3)c2)cc1` (as salt: HCl) [Compound 25] displayed a melting point of 175 to 176 °C. As for `COc1cccc(-c2c([Si](C)(C)C)[nH]c3cc(Cl)ncc23)c1`, the melting point fell in the range of 179 to 179.5 °C. Same read-out and setting: with `C#CCCCCNc1ccnc2[nH]c(-c3ccc(OC)cc3)cc12` (as salt: hydrochloride) (hydrate or solvate) [Compound 20] the figure was 118 to 120 °C; with `COc1cc(-c2cc3c(Nc4ccc(F)c(Cl)c4)ccnc3[nH]2)cc(OC)c1OC` (as salt: hydrochloride) [Compound 5], 267.5 to 269 °C. `COc1cccc(-c2c[nH]c3ccnc(Nc4cccnc4)c23)c1` [Compound 63] showed a melting point of 177 to 178 °C.
